Measured values as given in the NIST ThermoML archive (doi:10.1016/j.tca.2015.02.020).

Experiment: molar heat capacity at constant pressure; xn = mol fraction of the nth substance listed
Conditions: 101 kPa, Liquid, Small sample (50 mg) DSC

CC(O)CN (stereo unspecified) [1-amino-2-propanol] + O
Conditions | molar heat capacity at constant pressure [J/K/mol]
207.73 K, x1 = 0.68 | 127.89
209.98 K, x1 = 0.19 | 80.53
209.98 K, x1 = 0.26 | 88.72
210.13 K, x1 = 0.68 | 136.98
210.14 K, x1 = 0.16 | 76.29
212.31 K, x1 = 0.16 | 80.64
212.31 K, x1 = 0.19 | 81.68
212.31 K, x1 = 0.26 | 87.41
212.33 K, x1 = 0.15 | 76.55
212.46 K, x1 = 0.68 | 129.03
213.3 K, x1 = 0.19 | 80.82
213.3 K, x1 = 0.26 | 89.38
213.45 K, x1 = 0.16 | 76.84
213.45 K, x1 = 0.68 | 137.55
217.04 K, x1 = 0.19 | 82.55
217.04 K, x1 = 0.26 | 88.06
217.05 K, x1 = 0.16 | 81.72
217.07 K, x1 = 0.15 | 77.88
217.19 K, x1 = 0.68 | 129.59
219.93 K, x1 = 0.19 | 82.26
219.93 K, x1 = 0.26 | 90.36
220.08 K, x1 = 0.68 | 136.98
220.09 K, x1 = 0.16 | 76.56
221.78 K, x1 = 0.19 | 83.7
221.79 K, x1 = 0.16 | 83.08
221.79 K, x1 = 0.26 | 89.71
221.81 K, x1 = 0.15 | 79.21
221.94 K, x1 = 0.68 | 130.73
223.25 K, x1 = 0.19 | 82.84
223.25 K, x1 = 0.26 | 91.35
226.53 K, x1 = 0.16 | 84.44
226.53 K, x1 = 0.19 | 84.86
226.53 K, x1 = 0.26 | 91.02
226.55 K, x1 = 0.15 | 80.8
226.68 K, x1 = 0.68 | 132.44
229.89 K, x1 = 0.26 | 92.99
231.26 K, x1 = 0.19 | 86.01
231.26 K, x1 = 0.26 | 92.34
231.27 K, x1 = 0.16 | 85.52
231.3 K, x1 = 0.15 | 82.4
231.42 K, x1 = 0.68 | 133.57
233.2 K, x1 = 0.26 | 94.31
236.01 K, x1 = 0.16 | 86.88
236.01 K, x1 = 0.19 | 87.46
236.01 K, x1 = 0.26 | 93.65
236.04 K, x1 = 0.15 | 83.99
236.16 K, x1 = 0.68 | 135.28
239.85 K, x1 = 0.26 | 96.28
240.75 K, x1 = 0.16 | 88.51
240.75 K, x1 = 0.19 | 88.61
240.75 K, x1 = 0.26 | 94.96
240.78 K, x1 = 0.15 | 85.59
240.9 K, x1 = 0.68 | 136.98
243.17 K, x1 = 0.26 | 97.59
245.5 K, x1 = 0.16 | 89.6
245.5 K, x1 = 0.19 | 90.05
245.5 K, x1 = 0.26 | 96.61
245.53 K, x1 = 0.15 | 87.18
245.64 K, x1 = 0.68 | 138.69
249.82 K, x1 = 0.26 | 99.89
250.25 K, x1 = 0.16 | 90.95
250.25 K, x1 = 0.19 | 91.5
250.25 K, x1 = 0.26 | 97.92
250.28 K, x1 = 0.15 | 88.51
250.4 K, x1 = 0.68 | 140.39
253.15 K, x1 = 0.26 | 101.21
255 K, x1 = 0.16 | 91.77
255 K, x1 = 0.19 | 92.36
255 K, x1 = 0.26 | 99.24
255.03 K, x1 = 0.15 | 89.84
255.14 K, x1 = 0.68 | 142.67
259.75 K, x1 = 0.16 | 92.85
259.75 K, x1 = 0.19 | 93.81
259.75 K, x1 = 0.26 | 100.55
259.78 K, x1 = 0.15 | 90.9
259.8 K, x1 = 0.19 | 95.54
259.8 K, x1 = 0.26 | 103.51
259.89 K, x1 = 0.68 | 144.37
259.95 K, x1 = 0.16 | 93.4
259.95 K, x1 = 0.68 | 154.04
259.96 K, x1 = 0.15 | 93.83
263.13 K, x1 = 0.19 | 96.69
263.13 K, x1 = 0.26 | 104.82
263.27 K, x1 = 0.68 | 155.17
263.28 K, x1 = 0.16 | 94.48
263.29 K, x1 = 0.15 | 94.62
264.5 K, x1 = 0.16 | 93.94
264.5 K, x1 = 0.19 | 94.96
264.5 K, x1 = 0.26 | 101.87
264.53 K, x1 = 0.15 | 92.23
264.64 K, x1 = 0.68 | 146.65
269.26 K, x1 = 0.16 | 94.48
269.26 K, x1 = 0.19 | 95.83
269.26 K, x1 = 0.26 | 103.18
269.29 K, x1 = 0.15 | 93.29
269.4 K, x1 = 0.68 | 148.35
269.78 K, x1 = 0.19 | 98.71
269.79 K, x1 = 0.26 | 107.45
269.93 K, x1 = 0.68 | 158.01
269.94 K, x1 = 0.16 | 96.66
269.95 K, x1 = 0.15 | 96.75
273.12 K, x1 = 0.19 | 99.87
273.13 K, x1 = 0.26 | 108.44
273.27 K, x1 = 0.68 | 159.15
273.29 K, x1 = 0.15 | 97.28
273.29 K, x1 = 0.16 | 97.74
274.05 K, x1 = 0.16 | 95.3
274.05 K, x1 = 0.19 | 96.98
274.05 K, x1 = 0.26 | 104.49
274.09 K, x1 = 0.15 | 93.83
274.2 K, x1 = 0.68 | 150.62
278.96 K, x1 = 0.26 | 105.81
278.97 K, x1 = 0.16 | 96.11
278.97 K, x1 = 0.19 | 98.13
279 K, x1 = 0.15 | 94.89
279.12 K, x1 = 0.68 | 152.9
280 K, x1 = 0.19 | 101.02
280.01 K, x1 = 0.26 | 109.42
280.15 K, x1 = 0.68 | 160.29
280.17 K, x1 = 0.15 | 97.81
280.17 K, x1 = 0.16 | 98.83
283.44 K, x1 = 0.19 | 101.31
283.44 K, x1 = 0.26 | 110.08
283.59 K, x1 = 0.68 | 160.86
283.61 K, x1 = 0.16 | 99.37
283.62 K, x1 = 0.15 | 98.08
283.88 K, x1 = 0.16 | 96.38
283.88 K, x1 = 0.19 | 97.85
283.88 K, x1 = 0.26 | 106.79
283.92 K, x1 = 0.15 | 95.42
284.02 K, x1 = 0.68 | 155.17
